This note sets out measurements from US10736859B2, “Eutectic formulations of cyclobenzaprine hydrochloride and amitriptyline hydrochloride” (Tonix Pharma Holdings Limited, priority 2013, dated 2020).

“Also recorded” adds a separate entry of the source.

Type in all cases: physicochemical
The nature of data set [1]: DSC, FT-IR/ATR and XRPD compatibility of Cyclobenzaprine HCl with additional excipients, mixed (A) and milled (B) 1:1 mixtures (Example 2). The conditions noted are these: for Interactions between Cyclobenzaprine HCl and excipients, Mixture 1:1 (mixed): mixture A, mechanical mixing only; for Interactions between Cyclobenzaprine HCl and excipients, Mixture 1:1 (mixed) / Interactions between Cyclobenzaprine HCl and excipients, Mixture 1:1 (milled): DSC; for Interactions between Cyclobenzaprine HCl and excipients, Mixture 1:1 (milled): mixture B, ground in agate mortar. How it is done:
As described above, thermal analytical techniques were further used to assess the compatibility of a drug product (tablet) containing Cyclobenzaprine HCl (API). The compatibility assessment was carried out between the API and additional excipients in a 1:1 ratio. The 1:1 API-excipient mixtures were formed in two different ways: first, by mixing only, and second, by strong milling in an agate mortar. The thermal behavior recorded in the two different mixtures were compared with those of the single components. On the basis of thermal events recorded for each component and for the mixtures, the analyses were carried out by investigating the meanings of the peaks recorded by differential scanning calorimetry (DSC) in mixtures between the API and the excipients. Furthermore, in order to define the nature of the interaction, the Fourier Transformate Infra Red Spectroscopy with Total Attenuated Reflectance (FT-IR/ATR) and X-ray powder diffraction (XRPD) of some samples (API, excipient, and mixed and milled mixtures) was carried out and compared.
Aliquots of API and each excipient were weighed in a ratio of 1:1 and ground in an agate mortar. Then, the homogeneous mixtures were analyzed. These sample mixtures were labeled “B”, while the mechanical-only mixtures were labeled “A.”
The DSC heating curves were obtained by TA 821 DSC Mettler instrument under the following conditions: • Heating rate: 10° C./min • Ambient: Nitrogen 30 mL/min • Sample holder: normal open aluminum pan • Temperature range: from 25° C. to 250° C. • Instrument calibration: Indium sample purity 99.999% Fourier Transformate Infra Red Spectroscopy with Total Attenuated Reflectance (FT-IR/ATR)
The FT-IR spectra were collected with a Perkin Elmer spectrum Two instrument with air as background and 4 cm^−1 resolution.
X-ray powder diffraction (XRPD) tests were performed with the ULTIMA IV instrument (Rigaku), laying the sample on a static sample holder. The X-ray focusing slit has a variable width, interlocked with the q value. The X-ray tube has a Copper target, with a current intensity of 40 mA and a voltage of 40 kV. Radiation was generated by the Cockcroft-Walton method, and was constituted by Kα1 (1.540562 Å) and Kα2 (1.544398 Å). The analytical conditions were: • Fixed Time; sampling width 0.02 deg, scanning rate 1.3 s/step, 2 q range 3.35 deg and sample holder; amorphous glass equiangular 9200/2G, 0.2 mm deep. The sample was pressed with a glass plate.
In general terms: In DSC, transitions show as peaks or steps in heat flow.

Data set [2] in a line: DSC compatibility of Amitriptyline HCl with excipients, 1:1 milled mixtures (Example 4). As to conditions: Amitriptyline HCl + excipient 1:1, milled in agate mortar. As to the method: Thermal analytical techniques were used to assess the compatibility of the drug product amitriptyline HCl. The compatibility assessment was carried out between the API and the excipients in a 1:1 ratio. On the basis of thermal events recorded for each component and for the mixtures, the analyses were carried out by investigating the peaks recorded by DSC in mixtures between API and the excipients. Differences in thermal profiles between the single compound and the related mixtures were obtained after milling the products in an agate mortar.
DSC was performed substantially as described in Examples 1 and 2. The following raw materials were used: • Amitriptyline HCl • Sodium stearyl fumarate • Stearic acid • Glycerol dibehenate • Magnesium stearate • Pearlitol flash • Pearlitol 200 SO/Mannitol • Unipure DW/Com starch pregelatinized • Crospovidone-Kollidon CL • Silicon Colloidal/Aerosil 200 • Sodium phosphate dibasic • Sodium bicarbonate • Sodium carbonate • Sodium Phosphate dodecahydrate • Sodium Phosphate anhydrous.

The nature of data set [3]: DSC compatibility of Cyclobenzaprine HCl (API) with excipients, milled mixtures (Example 1). The conditions noted are these: for Excipient reactions with API, Mixture 1:1: Cyclobenzaprine HCl + excipient 1:1, ground in agate mortar; for Excipient reactions with API, Mixture in formulation ratio: Cyclobenzaprine HCl + excipient in formulation ratio. How it is done: Thermal analytical techniques were used to assess the compatibility of a drug product (tablet) containing Cyclobenzaprine HCl (API). The compatibility assessment was carried out between the API and a number of possible excipients in a 1:1 ratio. Based on the thermal events recorded for each component and for the mixtures, the analyses were carried out by investigating the peaks recorded by differential scanning calorimetry (DSC) in mixture between API and the excipients. Differences in thermal profiles between the single compound and the related mixture obtained after milling the products in an agate mortar were evaluated. Stability and compatibility also were also assessed on the final drug product after stress conditions at 40° C. and 50° C. for one month.
A “formulation ratio” mixture was made with the following composition: 2.40 mg Cyclobenzaprine HCl, 31.55 mg Mannitol and Maize starch, 2.00 Crospovidone, 0.50 mg colloidal silica, 0.050 mg Sodium Stearyl Fumarate, and 1.05 Potassium hydrogen phosphate.
Aliquots of API and each excipient were weighed in a ratio of 1:1 (unless specified otherwise) and ground in an agate mortar. The homogeneous mixtures then were analyzed.
The DSC heating curves were obtained with a TA 821 DSC Mettler instrument under the following conditions: • Heating rate: 10° C./min • Ambient: Nitrogen 30 mL/min • Sample holder: normal open aluminum pan • Temperature range: from 25° C. to 250° C. • Instrument calibration: Indium sample purity 99.999%

Where [4] appears, read: listed as sodium phosphate anhydrous.
The mark [5] stands for this setting: listed as sodium phosphate dihydrate, Sodium phosphate dihydrate.
Where [6] appears, read: listed as Sodium Stearyl fumarate, fumarate.
The mark [7] stands for this setting: listed as Trisodium Citrate anhydrous.
The mark [8] stands for this setting: listed as trisodium citrate dihydrate, citrate dihydrate.

As for `O=P([O-])([O-])O.[Na+].[Na+]` [Di Sodium phosphate anhydrous], the “Interactions between Cyclobenzaprine HCl and excipients, Mixture 1:1 (mixed)” value in data set [1] is listed as “Low chemical”; in data set [1] (setting [4]), “physical interaction”. In addition, the “Interactions between Cyclobenzaprine HCl and excipients, Mixture 1:1 (milled)” value is listed as “Low chemical” in data set [1] and “physical interaction” in data set [1] (setting [4]). Besides, the “Interactions between API and excipients, Mixture in formulation (1:1 ratio)” value in data set [2] (listed as Sodium phosphate anhydrous) was “No physical interaction”.
Take `O.O.O=P([O-])([O-])O.[Na+].[Na+]` [Di Sodium phosphate di hydrate, Di Sodium phosphate dihydrate]: in data set [1] (Sodium phosphate dihydrate), the “Interactions between Cyclobenzaprine HCl and excipients, Mixture 1:1 (mixed)” value is “Chemical”; the “Interactions between Cyclobenzaprine HCl and excipients, Mixture 1:1 (milled)” value is listed as “Chemical”. In data set [1] (setting [5]), the “Interactions between Cyclobenzaprine HCl and excipients, Mixture 1:1 (mixed)” value was “a physical interaction and partial solubilization”; the “Interactions between Cyclobenzaprine HCl and excipients, Mixture 1:1 (milled)” value is “physical interaction”.
For the compound `O.O.O.O.O.O.O.O=P([O-])([O-])O.[Na+].[Na+]` [Di Sodium phosphate heptahydrate], in data set [1], the “Interactions between Cyclobenzaprine HCl and excipients, Mixture 1:1 (mixed)” value was “Chemical”; the “Interactions between Cyclobenzaprine HCl and excipients, Mixture 1:1 (milled)” value is “Chemical”.
`CCCCCCCCCCCCCCCCCCCCCC(=O)OCC(CO)OC(=O)CCCCCCCCCCCCCCCCCCCCC` (centres unmarked) [Glycerol dibehenate]: the “Interactions between API and excipients, Mixture in formulation (1:1 ratio)” value is reported as “No interaction” in data set [2] and “small physical interaction” in data set [2] (listed as glycerol dibehenate).
For the compound `O=P([O-])([O-])O.[K+].[K+]` [Potassium phosphate dibasic, dipotassium hydrogen phosphate], the “Excipient reactions with API, Mixture 1:1” value is listed as “Acid - base interaction” in data set [3] and “chemical interaction (acid-base)” in data set [3] (listed as Potassium phosphate bibasic). In addition, the “Excipient reactions with API, Mixture in formulation ratio” value in data set [3] is reported as “Low chemical”; in data set [3] (listed as K2HPO4), “small interaction”.
Turning to `O=C([O-])[O-].[Na+].[Na+]` [Sodium carbonate], the “Interactions between API and excipients, Mixture in formulation (1:1 ratio)” value in data set [2] is “small physical interaction; also recorded: No interaction”.
Turning to `O=P([O-])([O-])O.[Na+].[Na+]` [Sodium phosphate dibasic], the “Interactions between API and excipients, Mixture in formulation (1:1 ratio)” value in data set [2] was “Physical interaction”.
Take `CCCCCCCCCCCCCCCCCCOC(=O)/C=C/C(=O)[O-].[Na+]` [Sodium stearyl fumarate]: the “Excipient reactions with API, Mixture 1:1” value in data set [3] (fumarate) is “Physical interaction”; in data set [3] (setting [6]), “physical interaction”. Also, the “Excipient reactions with API, Mixture in formulation ratio” value in data set [3] (fumarate) was “No interaction”; in data set [3] (setting [6]), “small physical interaction”. Further, the “Interactions between API and excipients, Mixture in formulation (1:1 ratio)” value is “Physical interaction” in data set [2] (fumarate) and “physical interaction” in data set [2] (setting [6]).
`OC[C@@H](O)[C@@H](O)[C@H](O)[C@@H](O)CO` [Sorbitol]: in data set [1], the “Interactions between Cyclobenzaprine HCl and excipients, Mixture 1:1 (mixed)” value is on record as “Chemical”; the “Interactions between Cyclobenzaprine HCl and excipients, Mixture 1:1 (milled)” value is “Chemical”. Also, in data set [1] (listed as sorbitol), the “Interactions between Cyclobenzaprine HCl and excipients, Mixture 1:1 (mixed)” value is reported as “interaction was observed, due to the solubilization of API by sorbitol”; the “Interactions between Cyclobenzaprine HCl and excipients, Mixture 1:1 (milled)” value is recorded as “interaction was observed, due to the solubilization of API by sorbitol”.
For the compound `CCCCCCCCCCCCCCCCCC(=O)O` [Stearic acid], in data set [2], the “Interactions between API and excipients, Mixture in formulation (1:1 ratio)” value was “small physical interaction; also recorded: No interaction”.
As to `O=C([O-])CC(O)(CC(=O)[O-])C(=O)[O-].[Na+].[Na+].[Na+]` [Tri Sodium Citrate anhydrous, Trisodium citrate anhydrous], the “Chemical acid-base reaction by FT-IR/ATR” value in data set [1] (mixture A 1:1 with Cyclobenzaprine HCl, room temperature, chlorohydrate band 3000-2000 cm-1) was “no chemical acid-base reaction had occurred”. Moreover, in data set [1], the “Interactions between Cyclobenzaprine HCl and excipients, Mixture 1:1 (mixed)” value is on record as “Physical”; the “Interactions between Cyclobenzaprine HCl and excipients, Mixture 1:1 (milled)” value is recorded as “Physical”. In data set [1] (setting [7]), the “Interactions between Cyclobenzaprine HCl and excipients, Mixture 1:1 (mixed)” value is on record as “physical complex melting at a lower temperature”; the “Interactions between Cyclobenzaprine HCl and excipients, Mixture 1:1 (milled)” value is recorded as “physical complex melting at lower temperature”.
On to `O.O.O=C([O-])CC(O)(CC(=O)[O-])C(=O)[O-].[Na+].[Na+].[Na+]` [Trisodium citrate dihydrate], for which the “Interactions between Cyclobenzaprine HCl and excipients, Mixture 1:1 (mixed)” value is “Chemical” in data set [1] (citrate dihydrate) and “physico-chemical interaction” in data set [1] (setting [8]). Besides, the “Interactions between Cyclobenzaprine HCl and excipients, Mixture 1:1 (milled)” value was “Chemical” in data set [1] (citrate dihydrate) and “physico-chemical interaction” in data set [1] (setting [8]).
In the case of Magnesium stearate, the “Interactions between API and excipients, Mixture in formulation (1:1 ratio)” value in data set [2] is recorded as “small physical interaction”.
For Sodium Phosphate dodecahydrate, in data set [2], the “Interactions between API and excipients, Mixture in formulation (1:1 ratio)” value was “physical/chemical interaction”.
